pIC50: −log10 of the molar value. Converted amounts (≈) assume the structure as drawn.

This passage reports MIC, IC50 and ED50 results from ChEMBL document CHEMBL1137415, “Structure-activity relationship of 6-methylidene penems bearing 6,5 bicyclic heterocycles as broad-spectrum beta-lactamase inhibitors: evidence for 1,4-thiazepine intermediates with C7 R stereochemistry by computational methods” (J Med Chem, 2006).

One experiment deals with Enterobacter cloacae. Kind of experiment: Antibacterial activity against Enterobacter cloacae expressing P99. It is filed as functional.
Another experiment relates to Pseudomonas aeruginosa. Kind of experiment: Antibacterial activity against Pseudomonas aeruginosa expressing AmpC. It is filed as functional.
In a further experiment the test system is Serratia marcescens. Kind of experiment: Antibacterial activity against Serratia marcescens expressing AmpC and Smel. It is filed as functional.
The next experiment deals with Beta-lactamase TEM (Escherichia coli, UniProt P62593). The experiment can be described thus: Inhibition of Escherichia coli TEM1.
Beta-lactamase TEM, sequence (P62593 whole entry): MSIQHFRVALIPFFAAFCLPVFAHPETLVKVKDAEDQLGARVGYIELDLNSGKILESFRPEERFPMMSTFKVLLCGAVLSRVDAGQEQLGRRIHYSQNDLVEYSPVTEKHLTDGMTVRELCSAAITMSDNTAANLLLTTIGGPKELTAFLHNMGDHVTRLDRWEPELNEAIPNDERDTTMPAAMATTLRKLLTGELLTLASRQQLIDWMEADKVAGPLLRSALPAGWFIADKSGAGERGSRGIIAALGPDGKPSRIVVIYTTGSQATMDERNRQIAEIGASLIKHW
In experiment [1] the target is T1, Imipenem-hydrolyzing beta-lactamase (Enterobacter cloacae, UniProt P52663).
T1 sequence (P52663 whole entry): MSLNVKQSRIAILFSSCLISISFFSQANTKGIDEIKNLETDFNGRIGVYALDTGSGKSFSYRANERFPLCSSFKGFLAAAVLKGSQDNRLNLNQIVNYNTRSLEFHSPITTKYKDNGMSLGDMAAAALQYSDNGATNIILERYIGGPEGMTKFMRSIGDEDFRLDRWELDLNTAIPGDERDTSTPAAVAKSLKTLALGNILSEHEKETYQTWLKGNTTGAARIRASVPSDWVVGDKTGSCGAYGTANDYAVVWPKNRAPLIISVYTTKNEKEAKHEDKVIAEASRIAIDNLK
The experiment can be described thus: Inhibition of Enterobacter cloacae Imi1.

Experiment [2] deals with Metallo-beta-lactamase type 2 (Bacteroides fragilis, UniProt P25910). Kind of experiment: Inhibition of Bacteroides fragilis CcrA.
Metallo-beta-lactamase type 2, sequence (P25910 whole entry): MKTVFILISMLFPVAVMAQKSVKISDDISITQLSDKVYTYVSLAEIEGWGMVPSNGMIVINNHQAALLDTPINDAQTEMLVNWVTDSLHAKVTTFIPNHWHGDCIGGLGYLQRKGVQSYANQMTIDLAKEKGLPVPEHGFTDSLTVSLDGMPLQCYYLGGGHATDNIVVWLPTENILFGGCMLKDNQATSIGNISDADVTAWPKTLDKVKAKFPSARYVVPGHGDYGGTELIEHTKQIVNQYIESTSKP
In experiment [3] the target is Beta-lactamase TEM (Escherichia coli) (UniProt P62593). The experiment can be described thus: Antibacterial activity against Escherichia coli expressing TEM1. It counts as functional.
Beta-lactamase TEM (Escherichia coli), sequence (P62593 whole entry): as the sequence (P62593 whole entry) above
A further experiment concerns the target Beta-lactamase (Enterobacter cloacae, UniProt P05364).
In experiment [4] the test system is Escherichia coli. The experiment can be described thus: Antibacterial activity against Escherichia coli expressing TEM1 in iv dosed murine acute lethal infection model in presence of piperacillin. It is filed as functional.
Experiment [5] relates to Klebsiella aerogenes. Kind of experiment: Antibacterial activity against Enterobacter aerogenes expressing AmpC in iv dosed murine acute lethal infection model in presence of piperacillin. It counts as functional.
For experiment [6], the system named is Escherichia coli. The experiment can be described thus: Antibacterial activity against Escherichia coli expressing TEM1 in iv dosed murine acute lethal infection model. It counts as functional.
For experiment [7], the system named is Klebsiella aerogenes. The experiment can be described thus: Antibacterial activity against Enterobacter aerogenes expressing AmpC in iv dosed murine acute lethal infection model. It is filed as functional.
The nature of experiment [8]: Inhibition of SHV1.
Experiment [9] can be described thus: Inhibition of GC1.

Beta-lactamase, sequence (P05364 whole entry): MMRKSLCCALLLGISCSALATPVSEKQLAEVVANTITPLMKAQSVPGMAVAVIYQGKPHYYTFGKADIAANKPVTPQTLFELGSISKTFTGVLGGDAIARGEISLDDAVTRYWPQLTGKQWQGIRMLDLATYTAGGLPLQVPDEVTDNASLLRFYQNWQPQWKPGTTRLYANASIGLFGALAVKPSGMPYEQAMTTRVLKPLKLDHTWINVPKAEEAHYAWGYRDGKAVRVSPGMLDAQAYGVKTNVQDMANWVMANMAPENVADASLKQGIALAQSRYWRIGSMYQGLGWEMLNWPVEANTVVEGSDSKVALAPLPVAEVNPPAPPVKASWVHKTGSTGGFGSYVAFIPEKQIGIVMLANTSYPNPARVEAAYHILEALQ

In the case of `O=C([O-])C1=CS[C@@H]2/C(=C\c3cn4c(n3)CSCC4)C(=O)N12.[Na+]`, the MIC (in the experiment on Enterobacter cloacae; in the experiment with Pseudomonas aeruginosa; against Serratia marcescens; in experiment [3]) was 8 µg/mL throughout. Besides, the pIC50 (commonly the IC50 on a negative log10 scale, so that one unit is a factor of ten) against Beta-lactamase TEM was 8.52; in experiment [1], 5.64; in experiment [2], 8.10; at Beta-lactamase, 8.70.
Turning to `O=C([O-])C1=CS[C@@H]2/C(=C\c3cc4n(n3)CCS(=O)(=O)C4)C(=O)N12.[Na+]`, the MIC worked out at 16 µg/mL against Enterobacter cloacae, 2 µg/mL in the experiment on Pseudomonas aeruginosa, 1 µg/mL against Serratia marcescens and 4 µg/mL in experiment [3]. The pIC50 at Beta-lactamase TEM is 9.00; in experiment [1] it was 7.25; in [2] it was 7.37; on Beta-lactamase, 8.70. Moreover, the ED50 (in general, the dose at which the effect has come halfway, by size or by number of responders) in the experiment on Escherichia coli [4] came to 64 mg/kg.
For `O=C([O-])C1=CS[C@@H]2/C(=C\c3cc4n(n3)CCNC4)C(=O)N12.[Na+]`, the MIC in the experiment on Enterobacter cloacae came out at 16 µg/mL; in the experiment on Pseudomonas aeruginosa it was 0.5 µg/mL; against Serratia marcescens, 1 µg/mL; in experiment [3], 4 µg/mL. Moreover, the pIC50 at Beta-lactamase TEM was 9.00; in experiment [1], 6.91; against Beta-lactamase, 8.52. In addition, the ED50 in the experiment on Escherichia coli [4] was 30 mg/kg.
As for `O=C([O-])C1=CS[C@@H]2/C(=C\c3cc4n(n3)CCSC4)C(=O)N12.[Na+]`, the MIC in the experiment with Enterobacter cloacae turned out to be 8 µg/mL; against Pseudomonas aeruginosa it was 2 µg/mL; against Serratia marcescens it was 0.5 µg/mL; in experiment [3] it was 4 µg/mL. Further, the pIC50 in [1] was 7.74; against Beta-lactamase it was 9.00. The median effective dose (ED50) stood at 123 mg/kg in the experiment with Klebsiella aerogenes [5] and 31 mg/kg in the experiment on Escherichia coli [4].
As for `O=C([O-])C1=CS[C@@H]2/C(=C\c3cc4n(n3)CCCC4)C(=O)N12.[Na+]`, the MIC was 4 µg/mL against Enterobacter cloacae, 4 µg/mL against Pseudomonas aeruginosa, 1 µg/mL against Serratia marcescens and 2 µg/mL in experiment [3]. For the same molecule, the pIC50 at Beta-lactamase TEM was 8.70; in [1] it was 7.05; on Beta-lactamase, 8.52. For the same molecule, the figures for the ED50 in the experiment with Klebsiella aerogenes [5] and in the experiment with Escherichia coli [4] were 86 mg/kg and 28 mg/kg, respectively.
On to `CCN1CCN(C(=O)NC(C(=O)N[C@@H]2C(=O)N3C2SC(C)(C)[C@@H]3C(=O)O)c2ccccc2)C(=O)C1=O` (single isomer, unassigned) [PIPERACILLIN], for which the 50% effective dose (ED50) in the experiment with Escherichia coli [6] was 165 mg/kg; in the experiment with Klebsiella aerogenes [7], 421 mg/kg.
Consider `C[C@]1(Cn2ccnn2)[C@H](C(=O)O)N2C(=O)C[C@H]2S1(=O)=O` [TAZOBACTAM], for which the MIC was 64 µg/mL (≈ 213 µM) against Enterobacter cloacae, 64 µg/mL (≈ 213 µM) in the experiment on Pseudomonas aeruginosa, 1 µg/mL (≈ 3.33 µM) in the experiment with Serratia marcescens and 2 µg/mL (≈ 6.66 µM) in experiment [3].
Turning to `O=C([O-])C1=CS[C@@H]2/C(=C\c3cc4n(n3)CCOC4)C(=O)N12.[Na+]`, the MIC was 8 µg/mL in the experiment with Enterobacter cloacae, 2 µg/mL with Pseudomonas aeruginosa, 1 µg/mL in the experiment with Serratia marcescens and 4 µg/mL in [3]. The pIC50 is 8.40 at Beta-lactamase TEM, 7.70 in experiment [1] and 8.22 on Beta-lactamase. The ED50 in the experiment on Escherichia coli [4] stood at 19 mg/kg.
Take `O=C([O-])C1=CS[C@@H]2/C(=C/c3cn4c(n3)CSCC4)C(=O)N12.[Na+]`: the MIC was 32 µg/mL in the experiment with Enterobacter cloacae, 64 µg/mL in the experiment on Pseudomonas aeruginosa, 4 µg/mL in the experiment with Serratia marcescens and 64 µg/mL in experiment [3]. Moreover, the negative logarithm of the IC50 (pIC50) is 6.14 at Beta-lactamase TEM, below 5.00 in [1], 6.96 in experiment [2] and 6.38 at Beta-lactamase.
Consider `O=C([O-])C1=CS[C@@H]2/C(=C\c3cc4c(s3)CCN(Cc3cccnc3)C4)C(=O)N12.[Na+]`, for which the MIC against Enterobacter cloacae stood at 64 µg/mL; with Pseudomonas aeruginosa, 64 µg/mL; with Serratia marcescens it was 1 µg/mL; in experiment [3] it was 32 µg/mL. Further, the pIC50 is 8.00 against Beta-lactamase TEM and 7.40 in experiment [1].
In the case of `O=C([O-])C1=CS[C@@H]2/C(=C/c3cn4c(n3)COCC4)C(=O)N12.[Na+]`, the MIC turned out to be 8 µg/mL against Enterobacter cloacae, 1 µg/mL in the experiment with Pseudomonas aeruginosa, 1 µg/mL against Serratia marcescens and 2 µg/mL in experiment [3]. Also, the negative-log IC50 (pIC50) in [8] was 8.05; in experiment [9] it was 8.21; on Beta-lactamase TEM it was 9.40; in experiment [1] it was 8.10; in experiment [2], 7.18; against Beta-lactamase, 8.30. The ED50 with Klebsiella aerogenes [5] worked out at 96 mg/kg; in the experiment on Escherichia coli [4] it was 23 mg/kg.
`COc1ccc(CN2CCc3sc(/C=C4/C(=O)N5C(C(=O)[O-])=CS[C@H]45)cc3C2)cc1.[Na+]`: the MIC in the experiment on Enterobacter cloacae came out at 32 µg/mL; in the experiment with Pseudomonas aeruginosa, 32 µg/mL; in the experiment on Serratia marcescens, 1 µg/mL; in experiment [3], 8 µg/mL. Also, the pIC50 was 8.70 at Beta-lactamase TEM, 7.57 in experiment [1], 7.11 in [2] and 7.82 against Beta-lactamase.
Regarding `O=C([O-])C1=CS[C@@H]2/C(=C\c3cc4n(n3)CCCO4)C(=O)N12.[Na+]`, the MIC in the experiment on Enterobacter cloacae turned out to be 4 µg/mL; against Pseudomonas aeruginosa it was 1 µg/mL; against Serratia marcescens it was 1 µg/mL; in experiment [3], 4 µg/mL. Moreover, the pIC50 is 8.22 against Beta-lactamase TEM, 6.38 in experiment [1], 6.85 in experiment [2] and 8.30 against Beta-lactamase. The ED50 with Escherichia coli [4] was found to be 90 mg/kg.
As for `CN1CCn2cc(/C=C3/C(=O)N4C(C(=O)[O-])=CS[C@H]34)nc2C1.[Na+]`, the MIC against Enterobacter cloacae turned out to be 1 µg/mL; with Pseudomonas aeruginosa, 4 µg/mL; in the experiment on Serratia marcescens, 1 µg/mL; in experiment [3] it was 16 µg/mL. Besides, the pIC50 at Beta-lactamase TEM is 8.40; in experiment [1] it was 7.66; on Beta-lactamase, 8.22.
In the case of `O=C([O-])C1=CS[C@@H]2/C(=C/c3cn4c(n3)CNCC4)C(=O)N12.[Na+]`, the MIC against Enterobacter cloacae turned out to be 2 µg/mL; with Pseudomonas aeruginosa it was 16 µg/mL; in the experiment with Serratia marcescens, 1 µg/mL; in [3], 2 µg/mL. The pIC50 against Beta-lactamase TEM was 8.30; in experiment [1], 7.55; in experiment [2], 6.49; against Beta-lactamase, 8.22. For the same molecule, in the experiment on Escherichia coli [4], the ED50 is 27 mg/kg.
